Test results reported in patent US20130131062A1, “PYRIDAZINONES AND FURAN-CONTAINING COMPOUNDS” (priority 2006, published 2013).
Like-named read-outs stand apart in the source and are kept apart here. Each block holds one compound with its values, some of them ahead of it.

Tests used:
[1] = test system: 15 non small cell lung cancer lines representing various EGFR and KRAS mutations; test: Dose response studies against 15 NSCLC lines (alamar blue); type: cell-based, human
Method: Dose response studies against 34 compounds from the pyridazinone and phenylfuran-carboxamide class were conducted. […] In addition, Tarceva was included in these dose response studies.
The dose response studies were done with the following standard procedure. First, the cells were counted and dispensed at 250 cells/well into 384-well microplates with compound. The cells were incubated for 48 hours at 37 C to complete treatment, and then alamar blue was added for an additional 48 hours. Finally, alamar blue reduction was measured and the data was loaded into ORIS, our data screening acquisition platform.

H3255 = test: Non Small Cell Lung Cancer Proliferation Assay (Alamar Blue); type: cell-based, human; details: for inhibition at 10 µM: Homo sapiens, NCI-H3255
Method: (§1) These cells have a doubling time of 1-2 days. All cell types are adherent and grow in colonies. The cells should be kept at a density between 50,000 cells/mL-500,000 cells/mL to provide for optimum growth and adequate nutrition. The cell line should be maintained at 37° C. in a humidified atmosphere with 5% CO2 in a sterile cell culture incubator.
(§2) To perform the assay, the Non Small Cell Lung Cancer lines are diluted in media and plated into 384 well microplates at a final density of 250 cells in 45 μL.
(§3) High Controls for this assay are made by treating Non Small Cell Lung Cancer cells with 5 ul of 10% DMSO. [Final concentration in this assay is 1% DMSO].
(§4) Important Note: All compounds for testing in this assay should be done at the final concentration of 1% DMSO.
(§5) After addition, the cells are placed in cell culture incubator at 37° C. for 48 hours for complete treatment.
(§6) After drug treatment, cytotoxicity is measured by Alamar Blue reduction.
(§7) The cells are incubated for 48 hours at 37° C. to complete the Alamar Blue reduction.
(§8) The final step in the assay is to measure the amount of Alamar Blue reduction. […] The Alamar Blue fluorescence is measured at an excitation of 530 nm and emission of 590 nm.
(§9) For the NSCLC project, the cell based assay was screened against a small molecule library of approximately 200,000 compounds. The compound library is stored in our automated robotic freezer (Biophile) at −20° C. in 100% DMSO. Compound freeze and thaw cycles are kept to a minimum. […] This assay was performed on a fully automated linear track robotic platform (CRS F3 Robot System, Thermo Electron Corp., Ontario, Canada) utilizing several integrated peripherals for plate handling, liquid dispensing, and readout detection. […] The microplates are then placed at 37° C. for 48 hours to complete treatment of cells with compounds. Next, 5 ul of alamar blue was added using a liquid dispenser (FlexDrop Precision Dispenser, Perkin Elmer, Mass., USA) and incubated for 48 hours at 37° C. The alamar blue prompt fluorescence was measured on Victor V (Victor^3 V, Perkin Elmer, Mass., USA) and output data files were loaded into ORIS (Oncology Research Informatics System, MSKCC, NY, USA), a screening data acquisition and analysis platform.

H1650 = test: as above; type: cell-based, human; details: for inhibition at 10 µM: Homo sapiens, NCI-H1650
Method: as §1, with “Non Small Cell Lung Cancer cell lines are grown and maintained in Corning 175 cm2 flasks in RPMI 1640 media supplemented with 10% FBS, 1% antibiotic solution, 1% additional glutamine and pyruvate. These” for “These”
(§10) To perform the assay, the Non Small Cell Lung Cancer lines are diluted in media and plated into 384 well microplates at a final density of 250 cells in 45 μL. To ensure consistency and minimal pipetting error, the cells are plated using the Multidrop 384 with the following settings: Rocker Switch set at 384, Volume 45 and Column 24.
(§11) Low Controls for this assay are made by treating Non Small Cell Lung Cancer cells with 5 ul of staurosporine at 250 uM in 10% DMSO and 1% SDS. [Final concentration in this assay is 25 uM staurosporine in 1% DMSO and 0.1% SDS.]
as §3
(§12) The remaining wells of the 384 microplate may be treated with different compounds depending on the study. Important Note: All compounds for testing in this assay should be done at the final concentration of 1% DMSO.
as §5
(§13) After drug treatment, cytotoxicity is measured by Alamar Blue reduction. 5 μL of Alamar Blue is added to the 384 microplates using the Flexdrop.
as §7, §8
(§14) For the NSCLC project, the cell based assay was screened against a small molecule library of approximately 200,000 compounds. The compound library is stored in our automated robotic freezer (Biophile) at −20° C. in 100% DMSO. Compound freeze and thaw cycles are kept to a minimum. Compounds for use are diluted into the appropriate concentration and plated into 384 well microplates using our custom built low volume 384-well head tool (TPS 384, Apricot Designs Inc., CA, USA). This assay was performed on a fully automated linear track robotic platform (CRS F3 Robot System, Thermo Electron Corp., Ontario, Canada) utilizing several integrated peripherals for plate handling, liquid dispensing, and readout detection. First, non-small cell lung cancer cell lines are dispensed into 384 well microplates (Corning #3712 Tissue Culture Treated Plate, Corning, N.Y., USA) with 5 μL of test compounds at 100 uM in 10% DMSO for screening studies or 1 mM in 10% DMSO to 50 nM in 10% DMSO for dose response studies. The microplates are then placed at 37° C. for 48 hours to complete treatment of cells with compounds. Next, 5 ul of alamar blue was added using a liquid dispenser (FlexDrop Precision Dispenser, Perkin Elmer, Mass., USA) and incubated for 48 hours at 37° C. The alamar blue prompt fluorescence was measured on Victor V (Victor^3 V, Perkin Elmer, Mass., USA) and output data files were loaded into ORIS (Oncology Research Informatics System, MSKCC, NY, USA), a screening data acquisition and analysis platform.

H1975 = test: as above; type: cell-based, human; details: for inhibition at 10 µM: Homo sapiens, NCI-H1975
Method: as §1, with “Non Small Cell Lung Cancer cell lines are grown and maintained in Corning 175 cm2 flasks in RPMI 1640 media supplemented with 10% FBS, 1% antibiotic solution, 1% additional glutamine and pyruvate. These” for “These”
as §10, §11, §3, §12, §5, §13, §7, §8, §14

H2030 = test: as above; type: cell-based, human; details: for inhibition at 10 µM: Homo sapiens, NCI-H2030
Method: as §1, §2, §3, §4, §5, §6, §7, §8, §9

in vitro = details: human, NHBE CytoTox (uM)
Method: NHBE (normal human bronchiolar epithelial cells) are primary cells obtained from donor lungs and commercially available from Cambrex. The HPLID (human peripheral lung epithelial) cell line has been immortalized with the SV40 large T-antigen. WI-38: human lung fibroblast cell line. HPLID, NHBE and WI-38 cells will serve as controls in the chemical screens. WT: wildtype; WT*: over-expressed wildtype.
Compounds were tested in dose response studies from 10 μM to 5 nM against several non small cell lung cancer lines: H358, H827, H1118, H1650, H1734, H1975, H2030, and H3255, and were also studied in a 72 hour cytotoxicity assay against the NHBE and WI-38 cell lines.

[2] = HPL1D (SV40-immortalized human lung epithelian cells, EGFR WT, KRAS WT), 12 point doubling dilution 10 uM to 5 nM, alamar blue, read-out: IC50 HPL1D
[3] = Homo sapiens, H23 (EGFR WT, KRAS G12C), 12 point doubling dilution 10 uM to 5 nM, alamar blue, read-out: IC50 H23
[4] = Homo sapiens, PC9 (EGFR DclE746-A750, KRAS WT), 12 point doubling dilution 10 uM to 5 nM, alamar blue, read-out: IC50 PC9
[5] = percentage inhibition, H1650, screening concentration of 10 μM compound in 1% DMSO (v/v), read-out: R1650 PRIMARY HTS [%]
[6] = percentage inhibition, H1975, screening concentration of 10 μM compound in 1% DMSO (v/v), read-out: R1975 PRIMARY HTS [%]
[7] = percentage inhibition, H2030, screening concentration of 10 μM compound in 1% DMSO (v/v), read-out: H2030 PRIMARY HTS [%]
[8] = percentage inhibition, H3255, screening concentration of 10 μM compound in 1% DMSO (v/v), read-out: H3255 PRIMARY HTS [%]
[9] = primary screening, 10 μM compound in 1% DMSO (v/v), read-out: percentage inhibition H1650
[10] = primary screening, 10 μM compound in 1% DMSO (v/v), read-out: percentage inhibition H1975
[11] = primary screening, 10 μM compound in 1% DMSO (v/v), read-out: percentage inhibition H2030
[12] = primary screening, 10 μM compound in 1% DMSO (v/v), read-out: percentage inhibition H3255
[13] = confirmation, percentage inhibition, 10 μM compound in 1% DMSO (v/v)
[14] = Homo sapiens, read-out: IC50 H23
[15] = Homo sapiens, read-out: IC50 H1118
[16] = Homo sapiens, read-out: IC50 HPL1D
[17] = Homo sapiens, read-out: IC50 PC9
[18] = primary screening, 10 μM compound in 1% DMSO (v/v)

SMILES: O=c1c(Br)c(Br)cnn1-c1ccccc1 [compound 257015]
IC50 [1, 2]: 300 nM

IC50 [1, 3]: > 10000 nM
IC50 [1, 4]: > 10000 nM
SMILES: Cc1ccc(-n2ncc(Cl)c(Cl)c2=O)cc1Cl [compound 267070]
IC50 [1, 2]: > 10000 nM

IC50 [1, 4]: 900 nM
SMILES: O=c1c(Cl)c(Cl)cnn1-c1cccc(C(F)(F)F)c1 [compound 176729]

IC50 (H3255; dose response 10 μM to 5 nM): 1110 nM
IC50 [1, 4]: > 10000 nM
SMILES: O=c1c(Cl)c(Cl)cnn1-c1ccc(Cl)cc1Cl [compound 267077]

SMILES: O=C(Nc1ccc(NC(=O)c2ccco2)c(Cl)c1)c1ccccc1 [compound 76839]
inhibition at 10 µM (H1650; [5]): 20%
inhibition at 10 µM (H1975; [6]): 3%
inhibition at 10 µM (H2030; [7]): -6%
inhibition at 10 µM (H3255; [8]): 2%

IC50 [1, 4]: 1510 nM
SMILES: CCc1cccc(-n2ncc(Cl)c(Cl)c2=O)c1 [compound 267062]

SMILES: Cc1cccc(NC(=O)c2ccc([N+](=O)[O-])o2)c1 [compound 71762]
IC50 [1, 2]: > 10000 nM

SMILES: O=c1c2c(cnn1-c1ccccc1)SC(c1ccccc1)S2 (stereo not drawn) [compound 182826]
inhibition at 10 µM (H1650; [9]): 13%
inhibition at 10 µM (H1975; [10]): 12%
inhibition at 10 µM (H2030; [11]): -11%
inhibition at 10 µM (H3255; [12]): -13%

IC50 ([1]; H2444 (EGFR WT, KRAS G12V), 12 point doubling dilution 10 uM to 5 nM, alamar blue, read-out: IC50 H2444): 5280 nM
SMILES: CCCCc1cccc(-n2ncc(Cl)c(Cl)c2=O)c1 [compound 267063]

SMILES: Cc1ccc(NC(=O)c2ccc([N+](=O)[O-])o2)cc1 [compound 98697]
CONFIRMATION [%] 3255 (H3255; [13]): 130%
IC50 [1, 14]: 910 nM
IC50 [1, 15]: 560 nM
IC50 [1, 16]: > 10000 nM
IC50 [1, 17]: 2170 nM

IC50 [1, 4]: > 10000 nM
SMILES: Cc1cc(-n2ncc(Cl)c(Cl)c2=O)ccc1Cl [compound 267065]

SMILES: Cc1cccc(-n2ncc(Cl)c(Cl)c2=O)c1 [compound 104122, 4,5-dichloro-2-m-tolyl-2H-pyridazin-3-one]
IC50 at 72 h (in vitro): 3.4 µM
IC50 [1, 14]: 210 nM
IC50 [1, 15]: 340 nM
IC50 [1, 16]: 280 nM
IC50 [1, 17]: 650 nM

SMILES: Cc1c(Oc2ccccc2)nnn1-c1cnn(-c2ccccc2)c(=O)c1Br [compound 223337]
percentage inhibition H1650 (H1650; [18]): 13%
percentage inhibition H1975 (H1975; [18]): 5%
percentage inhibition H2030 (H2030; [18]): −14%
percentage inhibition H3255 (H3255; [18]): 61%

IC50 [1, 4]: > 10000 nM
SMILES: Cc1nc2cc(-n3ncc(Cl)c(Cl)c3=O)ccc2s1 [compound 267067]

IC50 [1, 3]: 320 nM
SMILES: Cc1ccc(-n2ncc(Cl)c(Cl)c2=O)cc1 [compound 257016]

SMILES: Cc1cccnc1NC(=O)c1ccc([N+](=O)[O-])o1 [compound 108321]
inhibition at 10 µM (H1650; [5]): 38%
inhibition at 10 µM (H1975; [6]): -7%
inhibition at 10 µM (H2030; [7]): 6%
inhibition at 10 µM (H3255; [8]): 2%

IC50 (H2030; dose response 10 μM to 5 nM): 1420 nM
SMILES: O=c1c(Br)c(Br)cnn1-c1cccc(C(F)(F)F)c1 [compound 267072]

SMILES: O=c1c(Cl)c(Cl)cnn1-c1ccccc1 [compound 257014]
IC50 [1, 14]: 260 nM
IC50 [1, 15]: 450 nM
IC50 [1, 16]: 380 nM
IC50 [1, 17]: 830 nM

IC50 ([1]; Homo sapiens, NCI-H820, H820 (EGFR T790M/DelE746-A750, KRAS WT), 12 point doubling dilution 10 uM to 5 nM, alamar blue, read-out: IC50 H820): 410 nM
IC50 [1, 3]: 80 nM
SMILES: O=c1c(Cl)c(Cl)cnn1-c1ccccn1 [compound 267090]

SMILES: O=C(Nc1ccc(F)c(Cl)c1)c1ccc([N+](=O)[O-])o1 [compound 87200]
IC50 [1, 2]: > 10000 nM

IC50 [1, 4]: > 10000 nM
SMILES: Cc1cc(-n2ncc(Cl)c(Cl)c2=O)ccc1Br [compound 267064]

SMILES: N#Cc1ccccc1-n1nc(C(=O)c2cccs2)cc(-c2nc3ccccc3[nH]2)c1=N [compound 186926]
inhibition at 10 µM (H1650; [9]): 27%
inhibition at 10 µM (H1975; [10]): 81%
inhibition at 10 µM (H2030; [11]): 2%
inhibition at 10 µM (H3255; [12]): 52%

IC50 [1, 3]: 70 nM
IC50 [1, 4]: 420 nM
SMILES: O=c1c(Br)c(Br)cnn1-c1ccccn1 [compound 267073]

SMILES: O=C(Nc1ccc(Cl)cc1)c1ccc([N+](=O)[O-])o1 [compound 98698, 5-nitro-furan-2-carboxylic acid (4-chloro-phenyl)-amide]
CONFIRMATION [%] 1975 (H1975; [13]): 57%
CONFIRMATION [%] 2030 (H2030; [13]): 98%
IC50 [1, 14]: 600 nM
IC50 [1, 15]: 530 nM
IC50 [1, 16]: > 10000 nM
IC50 [1, 17]: 1580 nM
